Consider 30 compounds from patent publication US7932262B2 (Novartis AG, priority 2006, dated 2011).

What is called IC50 is the concentration needed to halve the response being measured.

Assay [1] addresses T1, PDK1 kinase (Homo sapiens, UniProt O15530).
T1 sequence (O15530 1-556): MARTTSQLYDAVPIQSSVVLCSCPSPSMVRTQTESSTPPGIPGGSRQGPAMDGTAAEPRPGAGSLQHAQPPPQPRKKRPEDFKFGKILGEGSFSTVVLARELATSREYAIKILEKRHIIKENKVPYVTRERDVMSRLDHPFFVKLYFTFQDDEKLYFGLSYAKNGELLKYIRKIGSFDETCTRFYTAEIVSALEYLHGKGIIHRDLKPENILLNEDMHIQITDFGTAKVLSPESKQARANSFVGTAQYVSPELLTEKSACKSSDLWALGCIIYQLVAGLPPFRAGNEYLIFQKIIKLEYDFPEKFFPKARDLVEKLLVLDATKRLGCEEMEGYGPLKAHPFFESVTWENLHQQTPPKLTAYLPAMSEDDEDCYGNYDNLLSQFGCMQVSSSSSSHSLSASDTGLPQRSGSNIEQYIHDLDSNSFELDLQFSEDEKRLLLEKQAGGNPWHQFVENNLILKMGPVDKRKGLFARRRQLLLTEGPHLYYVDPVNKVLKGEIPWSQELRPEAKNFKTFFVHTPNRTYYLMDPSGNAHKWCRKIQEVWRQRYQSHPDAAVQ
In words: PDK1 Kinase Alpha Screen Assay. The following applies: PDK1 Kinase Alpha Screen Assay; read-out: PDK1 IC50. The format is biochemical. Summed up: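 Compound in DMSO added to PDK1-4 peptide; PDK1/ATP mix starts reaction (final 50 nM peptide, 10 uM ATP). Runs 3-18 hours, stopped with 90 mM EDTA buffer. Antibody/bead mix added, developed overnight at room temperature, then AlphaScreen signal read.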

Assay [2] relates to PC-3 cells. Kind of assay: Cell Proliferation Assay (Cell Titer Glo), PC-3 cell line. The format is cell-based. The following applies: Homo sapiens, PC-3, Cell Proliferation Assay, PC3; read-out: CPEC50 PC3. In short, it runs like this:
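PC-3 cells, 1000 cells/well, left to adhere 3-5 h, then exposed for 3 days at 37° C to compounds as 1:3 serial dilutions from 500× DMSO stocks diluted in growth medium. Medium then replaced with fresh medium and viability read by Cell Titer Glo luminescence.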

Take `CC(C)NC(=O)c1cc(F)cc(Nc2ncc3cccc(OC4CCNCC4)c3n2)c1` [Compound 461, 3-fluoro-N-isopropyl-5-(8-(piperidin-4-yloxy)quinazolin-2-ylamino)benzamide]: the IC50 in assay [1] was < 5 µM. In addition, in assay [2], the EC50 is < 5 µM.

Take `O=C(c1cc(F)cc(Nc2ncc3cccc(OC4CCNCC4)c3n2)c1)N1CCOCC1` [Compound 462]: in assay [1], the IC50 was < 5 µM. Further, the EC50 in assay [2] was < 5 µM.

As to `CN1CCN(C(=O)c2cc(F)cc(Nc3ncc4cccc(OC5CCNCC5)c4n3)c2)CC1` [Compound 463, (3-fluoro-5-(8-(piperidin-4-yloxy)quinazolin-2-ylamino)phenyl)(4-methylpiperazin-1-yl)methanone], in assay [1], the IC50 is < 5 µM. Further, the EC50 in assay [2] is < 5 µM.

On to `Cc1ccc(OC2CCNCC2)c2nc(Nc3ccc(S(N)(=O)=O)cc3)ncc12` [Compound 464, 4-(5-methyl-8-(piperidin-4-yloxy)quinazolin-2-ylamino)benzenesulfonamide], for which the IC50 in assay [1] was < 5 µM. Also, the EC50 in assay [2] fell in the range of 5 to 10 µM.

As to `c1cc(CN2CCOCC2)cc(Nc2ncc3cccc(-c4ccc(NCCN5CCCC5)nc4)c3n2)c1` [Compound 465, N-(3-(morpholinomethyl)phenyl)-8-(6-(2-(pyrrolidin-1-yl)ethylamino)pyridin-3-yl)quinazolin-2-amine], the IC50 in assay [1] is < 5 µM. Besides, the EC50 in assay [2] is < 5 µM.

Turning to `CN1CCN(c2ccc(-c3cccc4cnc(Nc5ccc(N6CCOCC6)c(Cl)c5)nc34)cn2)CC1` [Compound 466, N-(3-chloro-4-morpholinophenyl)-8-(6-(4-methylpiperazin-1-yl)pyridin-3-yl)quinazolin-2-amine], the IC50 in assay [1] was < 5 µM. Besides, the EC50 in assay [2] is < 5 µM.

`CN1CCN(c2ccc(-c3cccc4cnc(Nc5cc(C(=O)O)cc(C(F)(F)F)c5)nc34)cn2)CC1` [Compound 467, 3-(8-(6-(4-methylpiperazin-1-yl)pyridin-3-yl)quinazolin-2-ylamino)-5-(trifluoromethyl)benzoic acid]: the IC50 in assay [1] is < 5 µM. In addition, the EC50 in assay [2] was < 5 µM.

Regarding `CN1CCN(c2ccc(-c3cccc4cnc(Nc5cc(C(=O)N6CCCC6)cc(C(F)(F)F)c5)nc34)cn2)CC1` [Compound 468, (3-(8-(6-(4-methylpiperazin-1-yl)pyridin-3-yl)quinazolin-2-ylamino)-5-(trifluoromethyl)phenyl)(pyrrolidin-1-yl)methanone], the IC50 in assay [1] was 5 to 10 µM. Also, the EC50 in assay [2] is < 5 µM.

Regarding `C#Cc1ccc(OC2CCNCC2)c2nc(Nc3ccc(S(N)(=O)=O)cc3)ncc12` [Compound 469, 4-(5-ethynyl-8-(piperidin-4-yloxy)quinazolin-2-ylamino)benzenesulfonamide], the IC50 in assay [1] is < 5 µM. The EC50 in assay [2] is 5 to 10 µM.

Regarding `c1cc(OC2CCNCC2)c2nc(Nc3ccc(N4CCOCC4)nc3)ncc2c1` [Compound 470, N-(6-morpholinopyridin-3-yl)-8-(piperidin-4-yloxy)quinazolin-2-amine], in assay [1], the IC50 was < 5 µM. Besides, the EC50 in assay [2] was < 5 µM.

With `Clc1cc(Nc2ncc3cccc(OC4CCNCC4)c3n2)ccc1N1CCOCC1` [Compound 471, N-(3-chloro-4-morpholinophenyl)-8-(piperidin-4-yloxy)quinazolin-2-amine], in assay [1], the IC50 was < 5 µM. Besides, the EC50 in assay [2] is < 5 µM.

In the case of `O=C(O)c1cc(Nc2ncc3cccc(OC4CCNCC4)c3n2)ccc1F` [Compound 472, 2-fluoro-5-(8-(piperidin-4-yloxy)quinazolin-2-ylamino)benzoic acid], the IC50 in assay [1] was < 5 µM. Besides, in assay [2], the EC50 lay in the range of 5 to 10 µM.

Turning to `CN(C)C(=O)c1cc(Nc2ncc3cccc(OC4CCNCC4)c3n2)ccc1F` [Compound 473, 2-fluoro-N,N-dimethyl-5-(8-(piperidin-4-yloxy)quinazolin-2-ylamino)benzamide], the IC50 in assay [1] is < 5 µM. For the same compound, the EC50 in assay [2] was < 5 µM.

For the compound `CC(C)NC(=O)c1cc(Nc2ncc3cccc(OC4CCNCC4)c3n2)ccc1F` [Compound 474, 2-fluoro-N-isopropyl-5-(8-(piperidin-4-yloxy)quinazolin-2-ylamino)benzamide], the IC50 in assay [1] is < 5 µM. Also, the EC50 in assay [2] was < 5 µM.

In the case of `O=C(c1cc(Nc2ncc3cccc(OC4CCNCC4)c3n2)ccc1F)N1CCOCC1` [Compound 475, (2-fluoro-5-(8-(piperidin-4-yloxy)quinazolin-2-ylamino)phenyl)(morpholino)methanone], in assay [1], the IC50 is < 5 µM. Moreover, the EC50 in assay [2] was 5 to 10 µM.

For the compound `O=C(NC1CCOCC1)c1cc(Nc2ncc3cccc(OC4CCNCC4)c3n2)ccc1F` [Compound 476, 2-fluoro-5-(8-(piperidin-4-yloxy)quinazolin-2-ylamino)-N-(tetrahydro-2H-pyran-4-yl)benzamide], in assay [1], the IC50 is < 5 µM. Moreover, in assay [2], the EC50 was < 5 µM.

For `O=C(c1ccc(Nc2ncc3cccc(OC4CCNCC4)c3n2)cc1F)N1CCCC1` [Compound 477, (2-fluoro-4-(8-(piperidin-4-yloxy)quinazolin-2-ylamino)phenyl)(pyrrolidin-1-yl)methanone], the IC50 in assay [1] is < 5 µM. Also, the EC50 in assay [2] is < 5 µM.

As for `CN1CCN(C(=O)c2ccc(Nc3ncc4cccc(OC5CCNCC5)c4n3)cc2F)CC1` [Compound 478, (2-fluoro-4-(8-(piperidin-4-yloxy)quinazolin-2-ylamino)phenyl)(4-methylpiperazin-1-yl)methanone], in assay [1], the IC50 was < 5 µM. Moreover, the EC50 in assay [2] is < 5 µM.

For the compound `c1ccc(Nc2ncc3cccc(OC4CCNCC4)c3n2)cc1` [Compound 479, N-phenyl-8-(piperidin-4-yloxy)quinazolin-2-amine], in assay [1], the IC50 was < 5 µM. In addition, the EC50 in assay [2] was < 5 µM.

In the case of `Fc1cccc(Nc2ncc3cccc(OC4CCNCC4)c3n2)c1` [Compound 480, N-(3-fluorophenyl)-8-(piperidin-4-yloxy)quinazolin-2-amine], the half-maximal inhibitory concentration (IC50) in assay [1] was < 5 µM. Further, the EC50 in assay [2] was < 5 µM.

`O=C(O)c1ccc(Nc2ncc3cccc(OC4CCNCC4)c3n2)cc1Cl` [Compound 481, 2-chloro-4-(8-(piperidin-4-yloxy)quinazolin-2-ylamino)benzoic acid]: in assay [1], the IC50 is < 5 µM. Moreover, the EC50 in assay [2] is 5 to 10 µM.

With `CC(C)NC(=O)c1ccc(Nc2ncc3cccc(OC4CCNCC4)c3n2)cc1Cl` [Compound 482, 2-chloro-N-isopropyl-4-(8-(piperidin-4-yloxy)quinazolin-2-ylamino)benzamide], the IC50 in assay [1] is < 5 µM. The EC50 in assay [2] is < 5 µM.

As to `O=C(c1ccc(Nc2ncc3cccc(OC4CCNCC4)c3n2)cc1Cl)N1CCOCC1` [Compound 483, (2-chloro-4-(8-(piperidin-4-yloxy)quinazolin-2-ylamino)phenyl)(morpholino)methanone], the IC50 in assay [1] is < 5 µM. Moreover, the EC50 in assay [2] was < 5 µM.

As to `Fc1ccc(Nc2ncc3cccc(OC4CCNCC4)c3n2)cc1Br` [Compound 484, N-(3-bromo-4-fluorophenyl)-8-(piperidin-4-yloxy)quinazolin-2-amine], the IC50 in assay [1] is < 5 µM. Further, the EC50 in assay [2] was < 5 µM.

In the case of `O=C(NC1CC1)c1ccc(Nc2ncc3cccc(OC4CCNCC4)c3n2)cc1Cl` [Compound 485, 2-chloro-N-cyclopropyl-4-(8-(piperidin-4-yloxy)quinazolin-2-ylamino)benzamide], the IC50 in assay [1] is < 5 µM. Further, the EC50 in assay [2] was < 5 µM.

As to `COCCNC(=O)c1ccc(Nc2ncc3cccc(OC4CCNCC4)c3n2)cc1Cl` [Compound 486, 2-chloro-N-(2-methoxyethyl)-4-(8-(piperidin-4-yloxy)quinazolin-2-ylamino)benzamide], the half-maximal inhibitory concentration (IC50) in assay [1] is < 5 µM. For the same compound, the EC50 in assay [2] is < 5 µM.

Consider `Fc1ccc(Nc2ncc3cccc(OC4CCNCC4)c3n2)cc1C1=CCNCC1` [Compound 487, N-(4-fluoro-3-(1,2,3,6-tetrahydropyridin-4-yl)phenyl)-8-(piperidin-4-yloxy)quinazolin-2-amine], for which, in assay [1], the IC50 is < 5 µM. In assay [2], the EC50 was < 5 µM.

`O=C(O)c1ccc(Nc2ncc3cccc(OC4CCNCC4)c3n2)cc1` [Compound 488, 4-(8-(piperidin-4-yloxy)quinazolin-2-ylamino)benzoic acid]: the IC50 in assay [1] is < 5 µM. In assay [2], the EC50 was < 5 µM.

With `N#Cc1ccc(Nc2ncc3cccc(OC4CCNCC4)c3n2)cc1` [Compound 489, 4-(8-(piperidin-4-yloxy)quinazolin-2-ylamino)benzonitrile], in assay [1], the IC50 is < 5 µM. For the same compound, the EC50 in assay [2] was < 5 µM.

Turning to `O=C(NC1CC1)c1ccc(Nc2ncc3cccc(OC4CCNCC4)c3n2)cc1` [Compound 490, N-cyclopropyl-4-(8-(piperidin-4-yloxy)quinazolin-2-ylamino)benzamide], in assay [1], the half-maximal inhibitory concentration (IC50) is < 5 µM. In assay [2], the EC50 is < 5 µM.
